From PMC10630888, “Nuclear ERK1/2 signaling potentiation enhances neuroprotection and cognition via Importinα1/KPNA2” (EMBO Molecular Medicine, 2023)
Values joined by “and” are separate entries in the source; they are usually repeats but may differ in a detail not shown here. Equal entries are not always repeated.

Key:
MEK-1 phosphorylation = test: Striatal phospho-MEK-1 immunohistochemistry 1 h after single injection; assay type: in vivo, mouse; settings: single injection 20 mg/kg i.p., individual mice
Protocol: (§1) Immunohistochemistry was performed as described in Papale et al ([2016]). Briefly, 1 h after blocking in 5% normal goat serum and 0.1% Triton X‐100 solution, free‐floating sections were incubated overnight at 4°C with one of the following primary antibodies: anti‐phospho‐p44/42 MAP kinase (Thr202/Tyr204) (1:200, Cell Signaling Technology #9101), anti‐phospho–Elk‐1 (Ser383) (1:100, Cell Signaling #9181), anti‐phospho‐Kv4.2 (Thr607)‐R (1:100, Santa Cruz sc22254‐R), anti‐phospho‐MSK‐1 (1:100 Cell Signaling Technology #9595), anti‐phospho‐MEK1/2 (Ser218/222) (1:100, sc‐7995 Santa Cruz Biotechnology), c‐Fos (1:100, sc‐52 Santa Cruz Biotechnology), tyrosine Hydroxylase (monoclonal 1:1,000, Sigma Aldrich, Italy) and anti‐DARPP‐32 (H3) (1:100, Santa Cruz Biotechnology, #sc‐271111) overnight at 4°C. […]
(§2) For in vivo immunohistochemistry experiments, images were acquired from the dorsal striatum using a Leica DM IRB microscope under a 20× objective. The number of p‐ERK, p‐MSK‐1, p‐ELK, p‐MEK‐1, p‐VG K+, c‐Fos, and DARPP‐32 positive cells was counted in 2–3 consecutive sections per mouse, bilaterally and averaged across the sections using the ImageJ software by a blind investigator to the condition. Estimation of nigral cell loss was assessed by quantifying the number of TH‐immunopositive neurons of the SNc in 360 μm‐spaced sections for each animal.

[1] = RB5 brain levels by HPLC-MS/MS; assay type: in vivo, mouse; set-up: Brain levels measured with mass spectrometry: unit not given here; settings: single 20 mg/kg i.p.; for Brain levels measured with mass spectrometry: mouse brain homogenate, individual mice, 20 mg/kg
Protocol: RB5 was quantified in the mouse brain using HPLC‐MS/MS. Brain samples were homogenized with 1:4 w/v of 50% acetonitrile 5% TFA in water with a homogenizer ultra‐turrax and then centrifuged at 13,000 rpm for 10 min at 4°C. The supernatant was collected and centrifuged at 15,871 g for 2 min at 4°C. The supernatant was then collected on ice, extracted using Sep‐Pak cartridges C18, lyophilized and kept at 4°C before HPLC‐MS/MS analysis. Immediately before the analysis, samples were suspended in 100 μl of 0.1% HCOOH in water/8% acetonitrile in auto‐sampler vials.
HPLC‐MS/MS analysis was performed using a system consisting of an Agilent 1200 series HPLC system coupled with an Agilent 6410 Triple Quadruple mass spectrometer. Mass Hunter Workstation v. B.01.03 software was used for data collection and processing (Agilent Technologies, Santa Clara, California, US). The quantification of brain levels of RB5 and Scramble peptides was carried out using an internal standard curve with peptide concentrations ranging from 0.1 to 4 ng/μl. RB5 and Scramble peptides, and the internal standard were separated at room temperature by injecting 10 μl of extracted sample onto a Jupiter C4 300 A analytical column, 2 × 150 mm, 5 μm particle size (Phenomenex, CA). Gradient elution was used for chromatographic separation, using 0.1% formic acid in water as solvent A and acetonitrile as solvent B at a flow rate of 200 μl/min. The elution started with 92% of eluent A and 8% of eluent B maintained for 1 min, followed by a 4 min linear gradient to 75% of eluent B, a 1 min linear gradient to 99% of eluent B, a 2 min isocratic elution, and a 0.5 min linear gradient to 8% of eluent B, which was maintained for 9.5 min to equilibrate the column. The samples were maintained at 4°C in the autosampler.
Peptides were then detected on an Agilent 6410 QQQ mass spectrometer using the following parameters: positive ion mode, 5 kV capillary voltage, cone voltage 500 V, gas flow rate 8 l/min at 350°C, nebulizer gas pressure 40 PSI at 350°C, well time 75 msec and Q1 and Q3 set to unit resolution.

[2] = test system: voltage-gated K+ (Kv4.2) channel phosphorylation; test: Striatal phospho-Kv4.2 immunohistochemistry 1 h after single injection; assay type: in vivo, mouse; settings: single injection 20 mg/kg i.p., individual mice
Protocol: as §1, §2

pERK = pERK in striatum of HdhQ111/+ mice treated with RB5; assay type: in vivo, mouse; settings: for pERK in striatum (Fig 5 panel d): individual animals
Protocol: Immunohistochemistry was performed as described in Papale et al ([2016]). Briefly, 1 h after blocking in 5% normal goat serum and 0.1% Triton X‐100 solution, free‐floating sections were incubated overnight at 4°C with one of the following primary antibodies: anti‐phospho‐p44/42 MAP kinase (Thr202/Tyr204) (1:200, Cell Signaling Technology #9101), anti‐phospho–Elk‐1 (Ser383) (1:100, Cell Signaling #9181), anti‐phospho‐Kv4.2 (Thr607)‐R (1:100, Santa Cruz sc22254‐R), anti‐phospho‐MSK‐1 (1:100 Cell Signaling Technology #9595), anti‐phospho‐MEK1/2 (Ser218/222) (1:100, sc‐7995 Santa Cruz Biotechnology), c‐Fos (1:100, sc‐52 Santa Cruz Biotechnology), tyrosine Hydroxylase (monoclonal 1:1,000, Sigma Aldrich, Italy) and anti‐DARPP‐32 (H3) (1:100, Santa Cruz Biotechnology, #sc‐271111) overnight at 4°C. Sections were then incubated with biotinylated goat anti‐rabbit IgG (1:200, Vector Laboratories) or biotinylated goat anti‐mouse (1:200, Vector Laboratories) for 2 h. The classic avidin‐peroxidase complex (ABC, Vector, UK) protocol was applied, using 3,3′‐diaminobenzidine (DAB, Sigma) as a chromogen.
as §2

p-ERK in dorsal striatum = test: In vivo time course of striatal pERK after RB5; set-up: species or system mouse; settings: mice, acute systemic administration, 20 mg/kg i.p.
Protocol: For the dose response study, 2‐month‐old CD1 male mice were injected with different doses of RB5 (1, 2.5, 5, 10, and 20 mg/kg, i.p.), whereas the control group was injected with 20 mg/kg (i.p.) of SCR peptide. Mice were perfused 1 h later with 4% PFA. For the time course study, mice were injected i.p. with 20 mg/kg of RB5 and perfused at different time points with 4% PFA (1, 3, 6, and 12 h). The control group was injected i.p. with 20 mg/kg of SCR. Brains were postfixed in 4% PFA for 24 h and cryoprotected overnight in sucrose 30% before immunohistochemistry against phospho‐ERK1/2.
Immunohistochemistry was performed as described in Papale et al ([2016]). […]
as §2

NOR memory = test: Novel object recognition test (NOR); assay type: in vivo, mouse; settings: mice, single systemic administration, 20 mg/kg i.p.
Protocol: NOR was performed as previously described (d'Isa et al, [2014]). Briefly, the test was performed in an open square box placed in a quiet room with dim light. The objects used were parallelepipeds in metal and glass vials filled with water. The protocol required 3 days and it was performed as follows.
Day 1: mice were individually placed in the empty arena for 5 min to familiarize with it and to measure their anxiety (thigmotaxis trial). The percentage of thigmotaxis is calculated as the time spent in the peripheral zone out of the total time spent in the arena (300 s.). Animals showing a thigmotaxis > 90% are discarded from the sample because considered biased for anxiety. Day 2: mice were placed into the arena for 10 min, where they were allowed to explore two identical objects (training trial). The amount of time spent by mice exploring each object was scored. […] Times of exploration for the familiar object and for the novel object were recorded. The discrimination index (D.I.), defined as the difference between the exploration time for the novel object and the one for the familiar object, divided by total exploration time, was calculated. The sessions were recorded with the video tracking software SMART (Panlab, Barcelona, Spain). […]

Row | Substance | p-MEK-1 positive cells in striatum (MEK-1 phosphorylation) | Brain levels measured with mass spectrometry ([1]; 1 h) | phospho-Kv4.2 positive cells in striatum [2] | ERK activity (pERK) in striatum (pERK; 10 month-old HdhQ111/+ mice, 20 mg/kg i.p. for 8 days) | pERK in striatum (Fig 5 panel d) (pERK; HdhQ111/+ mice) | pERK in striatum (Fig 5 panel d) (pERK; WT mice) | Time RB5 is detectable in brain postinjection (mass spectrometry) ([1]; mice) | Brain levels measured with mass spectrometry ([1]; 3 h) | Brain levels measured with mass spectrometry ([1]; 6 h) | Brain levels measured with mass spectrometry ([1]; 12 h) | half-life (suggested by duration of striatal ERK phosphorylation) (p-ERK in dorsal striatum) [h] | Persistence of NOR memory (NOR memory)
1 | SCR: ineffective Scramble version of RB5 containing a TAT sequence (GRKKRRQRRRPPRVGPGVPEGVGVAVFGVKEPGQTGDVGPVGE) [reference compound] | 385.714 and 492.857 and 471.429 and 371.429 and 478.571 and 335.714 and 407.143 and 328.571 and 342.857 and 257.143 and 442.857 and 264.286 and 542.857 | 6.434 and 8.14 | 690.476 and 419.048 and 495.238 and 514.286 and 895.238 and 652.381 and 457.143 and 633.333 and 452.381 and 780.952 and 561.905 and 657.143 and 738.095 and 604.762 |  |  |  |  |  |  |  |  | 
2 | GRKKRRQRRRPPQGGGGGEPRRTEGVGPGVPGEVEMVKGQPFDV [RB5, six D-amino acids, acetylated N-terminus] | did not influence the phosphorylation and 335.714 and 385.714 and 421.429 and 400 and 314.286 and 271.429 and 307.143 and 464.286 and 371.429 and 428.571 and 392.857 and 285.714 and 500 | 92.2252 and 89.7022 and 75.321 and 38.8889 and 66.5288 | did not influence the phosphorylation and 523.81 and 680.952 and 528.571 and 533.333 and 561.905 and 538.095 and 490.476 and 742.857 and 552.381 and 633.333 and 638.095 and 547.619 | enhancing ERK activity | 485.6 and 573.909 and 510.978 and 613 and 540.374 and 579.569 and 517.606 and 519.5 and 515.6 | 416.7 and 470.92 and 371.49 and 542.1 and 453.63 and 361.4 and 405.17 and 381.6 | up to 6 h | 119.5 and 39.8058 and 101.408 and 83.7545 and 96.934 | 57.0702 and 47.9263 and 56.5714 and 68.7679 and 72.8353 | 8.439 and 16.5056 and 9.465 and 6.558 | 6 to 12 | over 120 h
